Reference: PubChem BioAssay (NCI)
Several values for one entry are separate records, joined by “and”; a condition that tells them apart may be missing. Equal values may be shown once.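 Assay format: 96-well plates, 48-hour exposure. GI50 is the concentration that inhibits growth by half. TGI is the concentration that stops growth completely.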

How the values were obtained:
Experiment in all cases: inhibition of tumour cell growth, NCI panel, 48 h
HS 578T breast = system: HS 578T breast
MCF7 breast = system: MCF7 breast
MDA-MB-231 breast = system: MDA-MB-231 breast
MDA-MB-435 = system: MDA-MB-435
PC-3 prostate = system: PC-3 prostate
T-47D breast = system: T-47D breast

Row | Compound | GI50 (HS 578T breast) | TGI (HS 578T breast) | GI50 (MCF7 breast) | TGI (MCF7 breast) | GI50 (MDA-MB-231 breast) | TGI (MDA-MB-231 breast) | GI50 (MDA-MB-435) | TGI (MDA-MB-435) | GI50 (PC-3 prostate) | TGI (PC-3 prostate) | GI50 (T-47D breast) | TGI (T-47D breast) [µM]
1 | C/C(=N\O)c1cccc(Nc2cc(-c3ccccc3)nc3c(O)cccc23)c1 | 4.34 µM | > 60 µM | 0.354 µM | 46.5 µM | 2.34 µM | 13.3 µM | 0.271 µM | 2.01 µM | 1.94 µM | 19.9 µM | 2.36 µM | 30.5
2 | O=C(/C=C/c1cccc(S(=O)(=O)Nc2ccccc2)c1)NO | 1.28 µM and 0.52 µM | > 81.8 µM and 34.9 µM | 0.384 µM and 0.157 µM | > 100 µM and 10.4 µM | 0.577 µM and 0.216 µM | 19.9 µM and 5.63 µM | 0.29 µM and 0.194 µM | 3.48 µM and 2.07 µM | 0.557 µM and 0.151 µM | 51.2 µM and 21.8 µM | 0.227 µM and 0.144 µM | –
3 | C=C(CN1CCN(c2ccccc2C(F)(F)F)CC1)c1ccc(C(=O)Nc2ccccc2N)cc1 | 12.8 µM | > 100 µM | 4.48 µM | 37.1 µM | 4.68 µM | > 56.1 µM | 2.72 µM | > 22.6 µM | 1.91 µM | 12 µM | 7.67 µM | > 100
4 | Brc1ccc(Nc2nc3ccccc3nc2Nc2ccc(Br)cc2)cc1 | 2.9 µM | 9.05 µM | 0.527 µM | 5.41 µM | 1.46 µM | 3.01 µM | 1.51 µM | 4.9 µM | 0.637 µM | 10.4 µM | 0.936 µM | 7.09
5 | NCCCNc1nc2ccc(Cl)cc2c2c(=O)c3cc(F)ccc3sc12 | 3.22 µM | 17.7 µM | 1.68 µM | 3.42 µM | 1.78 µM | 4.09 µM | 1.93 µM | 4.2 µM | 3.43 µM | 14.2 µM | 9.65 µM | 34.3
6 | CCOC(=O)[C@@H](C)C[C@H](Cc1ccccc1)NC(=O)c1csc([C@@H](C[C@H](C(C)C)N(C)C(=O)[C@@H](NC(=O)[C@H]2C[C@H](O)CCN2C)C(C)C)OC(C)=O)n1 | 0.00906 µM | > 16.7 µM | < 0.00167 µM | > 16.7 µM | 0.00565 µM | 3.24 µM | – | – | 0.00187 µM | > 16.7 µM | – | –
7 | O=C1/C(=C\c2ccccc2)CN(C(=O)c2ccccc2)C/C1=C\c1ccccc1 | 2.31 µM | 7.21 µM | 0.39 µM | 1.69 µM | 2.2 µM | 5.02 µM | 1.61 µM | 5 µM | 2.27 µM | 7.86 µM | 4.93 µM | 19.9
8 | CCC(C)CC(C)C(=O)c1c(O)ccn(O)c1=O (stereo not drawn) | 3.08 µM | > 100 µM | 3.09 µM | > 100 µM | 1.04 µM | > 100 µM | 1.87 µM | > 100 µM | 1.33 µM | > 100 µM | 4.12 µM | 76.9
9 | COc1cc2c(cc1OCCCCn1c(-c3cccs3)nc3ccccc31)N=C[C@@H]1CCCN1C2=O | 1.7 µM | 6.43 µM | 0.66 µM | 12.5 µM | 1.39 µM | 5.22 µM | 1.39 µM | 3.75 µM | – | – | 0.503 µM | 3.65
10 | Cc1cc(C(O)(c2ccc(Nc3ccccc3)cc2)c2ccc(Nc3ccc(S(=O)(=O)O)cc3)cc2)ccc1N (stereo not drawn) | 1.5 µM | 5.55 µM | 0.478 µM | 2.67 µM | – | – | 1.28 µM | 2.69 µM | 1.31 µM | 6.18 µM | 0.609 µM | 3.18
11 | CCOc1cc(/C=C/C(=O)C(C(=O)/C=C/c2ccc(OC(=O)CNc3nnc(C)s3)c(OCC)c2)C(=O)CNc2nnc(C)s2)ccc1OC(=O)CNc1nnc(C)s1 | 2.28 µM | 12.4 µM | 0.317 µM | 2.28 µM | 1.99 µM | 6.15 µM | 1.53 µM | 8.7 µM | 1.51 µM | 15.6 µM | 3.4 µM | 35.6
12 | CCCOc1ccc(/C=N/Nc2cc(C)nc3ccc(Cl)cc23)cc1 | 2.15 µM | 4.63 µM | 1.67 µM | 3.4 µM | 1.85 µM | 3.49 µM | 1.8 µM | 3.24 µM | 1.53 µM | 3.13 µM | 1.71 µM | 3.62
13 | O=C(Nc1ccc(I)cc1)c1cccc([N+](=O)[O-])c1O | 4.13 µM | 87.7 µM | 2.76 µM | > 100 µM | 6.03 µM | > 100 µM | 3.07 µM | > 100 µM | 2.72 µM | 14.6 µM | 2.98 µM | 12.6
14 | FC(F)(F)c1cc(-c2ncn(/C=C\c3nnco3)n2)cc(C(F)(F)F)c1 | 0.195 µM | 8.28 µM | 0.0414 µM | 2.94 µM | 0.132 µM | > 73.9 µM | 0.0581 µM | 1.51 µM | 0.093 µM | > 36.9 µM | 0.0567 µM | > 41.5
15 | O=c1[nH]c(F)nc2c1ncn2C1OC(CO)C(O)C1O (stereo not drawn) | > 100 µM | > 100 µM | > 100 µM | > 100 µM | > 100 µM | > 100 µM | > 100 µM | > 100 µM | > 100 µM | > 100 µM | > 100 µM | > 100
16 | CCCCCCc1cc2cc(-c3csc(/C=C/c4ccccc4)n3)c(=O)oc2cc1O | 9 µM | 42.7 µM | 4.62 µM | 44 µM | 8.82 µM | 31.1 µM | 12.9 µM | 27.2 µM | 5.39 µM | 34.4 µM | 13.9 µM | > 100
17 | O=C(O)c1ccc(Oc2nc3ccccc3s2)cc1 | – | > 100 µM | – | > 100 µM | – | > 100 µM | – | > 100 µM | – | > 100 µM | – | > 100
18 | COc1ccc(C2CC(c3ccc4ccccc4c3)=NN2c2nc(O)c(C3=c4cc(OC)ccc4=NC3=O)s2)cc1 (stereo not drawn) | 0.0418 µM | 0.614 µM | 0.0315 µM | 0.75 µM | 0.0408 µM | 0.201 µM | 0.0351 µM | 0.134 µM | 0.0675 µM | 0.334 µM | 0.0401 µM | 0.184
19 | O=c1[nH]c2ccccc2n2cc3ccccc3c12 | 0.52 µM | 34.7 µM | 10.5 µM | > 100 µM | 0.948 µM | 10.2 µM | 16.3 µM | 31 µM | 5.74 µM | 29.1 µM | 7.45 µM | > 100
